In US11084836B2, “Compositions useful in therapy of autophagy-related pathologies, and methods of making and using the same” (The University of Toledo, priority 2016, dated 2021):
Entries after “also recorded” stand apart in the source; their conditions may differ.

How the values were obtained:
RG2 glioma cells [1] = experiment: Autophagic flux assay: LC3-I to LC3-II conversion in the presence of bafilomycin-A1, western blot; type: cell-based, rat; conditions: for stimulation of autophagy / autophagic flux (LC3-II increase in presence of bafilomycin-A1): 4 h, 50 nM bafilomycin-A1; for potency of autophagy stimulation relative to LKE (ratio of LC3-II band densities): western blot densitometry
Method: In the assay, cells are treated with subtoxic concentrations of bafilomycin-A, which blocks lysosomal acidification. This prevents autophagosome fusion with lysosomes at a specific point. […] Then, autophagy flux is measured by the conjugation of phosphatidylethanolamine to LC3-I, yielding an electrophoretically separable LC3-II. LC3-II acts as a link between nascent autophagosomes and cargo being directed into these structures. The autophagy intermediate protein LC3-II (a phosphatidylethanolamine-conjugated form of LC3-I) is measured by western blot. An autophagy enhancer will increase LC3-II in the presence of bafilomycin, whereas a compound that inhibits autophagy completion will not do so. Thus, the LC3A-I to LC3A-II conversion in the presence of bafilomycin-A1 constitutes a valid measure of autophagy.
Autophagy is a complex process involving many different protein components, but predominant amongst its regulatory elements are the mammalian target of rapamycin complex-1 (mTORC1) and unc-51-like kinase-1 (ULK1, FIG. 14). mTORC1 is itself a kinase that inhibits ULK1. When nutrients and cell energy are limiting, mTORC1 is suppressed by the coordinated actions of tuberous sclerosis complex (TSC) proteins 1 and 2 (TSC1/2) and Rheb (Ras homolog enriched in the brain). This allows disinhibition of ULK1, which then associates with beclin-1 protein to form pre-autophagosomal structures. Autophagosomes mature in a process marked by phosphatidylethanolamine conjugation to microtubule associated protein 1 light chain 3 (LC3-I→LC3-II conversion). After lysosomal fusion, the autophagy components are turned over and the cycle completes. One of the most reliable ways to determine whether a treatment increases true autophagy flux is to measure LC3-I to LC3-II conversion in the absence and presence of the vacuolar ATPase inhibitor bafilomycin-A1. Bafilomycin neutralizes lysosomal pH, preventing autophagosome-lysosomal fusion, and traps LC3-II at a point prior to its turnover in mature autophagolysosomes.
The cells were then incubated for an additional 4 h. At termination, the cell culture medium was removed, cells were washed with PBS and lysed on ice in Pierce RIPA buffer containing protease and phosphatase inhibitors.
An increase in the intensity of this band in the presence of bafilomycin-A1 indicates increased autophagic flux.
RG2 glioma cells (American Tissue Type Collection, ATTC, Rockville Md. USA) were treated for 4 h with 50 nM bafilomycin-A1 (previously dissolved to 1000× final concentration in dimethylsulfoxide). Thirty minutes after addition of bafilomycin, cells were treated with test agents at 100× final concentration. Cells were lysed in RIPA buffer containing protease and phosphatase inhibitors. Protein concentration was assayed and normalized to constant values (typically 5-7 mg/mL). Proteins were electrophoresed across 4-20% polyacrylamide gels and wet blotted onto polyvinylidine difluoride (PVDF) membranes. Proteins were blotted with commercially available antibodies against LC3.

[2] = Stability of the isolated solid under high vacuum; type: physicochemical; conditions: isolated white solid, at least overnight
Method: FIGS. 15A-15B show the ^1H NMR spectrum of 2-butyl-LK-P, with and without peak assignments. FIGS. 16A-16B show the ^1H NMR spectrum of 2-butyl-LK-P, with integration values and with and without peak assignments. ^1H NMR (CDCl3) δ 3.96 (br. s., 1H), 3.05 (d, J=12.4 Hz, 1H), 2.84-2.66 (m, 1H), 2.36 (br. s., 2H), 1.56-1.32 (m, 2H), 1.24 (d, J=6.2 Hz, 2H), 0.89-0.77 (m, 3H); HRMS (ESI) m/z calcd for C9H17NO5PS [M+H]^+ 282.0565, found 282.0645.
Briefly, to a solution of DEIVP (500.0 mg, 2.222 mmol), in a biotage microwave vial, was added bromotrimethylsilane (1.333 mL, […]). The tube was purged with argon, covered and heated at 400 W for 10 min. The contents of the vial were transferred to a round bottom flask, the vial was washed with dichloromethane (3×3 mL) which was transferred to the flask. The solvent and excess bromotrimethylsilane were removed in vacuo. To the flask was added dichloromethane (10 mL), which was subsequently removed in vacuo to aid in the removal of any residual bromotrimethylsilane. To the flask was added dichloromethane (9 mL) and, to this solution, with stirring, was added a solution of bromine ([…]) in dichloromethane (3 mL). The resultant solution was heated to reflux for 15 min and the solvent was removed in vacuo. […]

EOC-20 microglia = experiment: TNFα-stimulated microglial M1 activation, nitrite accumulation in culture medium; type: cell-based; conditions: cytokine (TNFα)-stimulated EOC-20 microglia, side-by-side
Method: Reaction completion was monitored by thin-layer chromatography and product identity was confirmed by mass spectrometry (FIG. 31A). […] M1 activation of EOC-20 cells was assessed by measuring TNFα-stimulated nitrite production.

RG2 glioma cells [3] = experiment: Proliferative capacity of glioma cells, tetrazolium reduction assay; type: cell-based, rat
Method: FIG. 37: Graph showing a reduction in proliferative capacity of RG2 glioma cells exposed to 2-n-hexyl-LKE-P. Glioma cells were plated at low density and treated with the indicated concentration of compound for 24 or 48 h, at which time relative cell number was estimated using a tetrazolium reduction assay.
Biomarkers of autophagy have been positively correlated with relatively better prognosis (longer patient lifespan) in humans suffering from high grade glioma. Accordingly, phosphonate analogs were tested for ability to reduce replicative capacity in RG2 glioma cells wherein the compounds increase autophagy. Cells were plated at low density (approximately 25,000 cells/[…]) using general cell culture methods, and treated with logarithmic dilutions of test agent. After 24 or 48 hours, cell number was estimated by a tetrazolium reduction assay using a commercially available kit (Promega Aqueous OneStep™). […] By 48 h the cells had largely achieved confluence and became somewhat contact inhibited, thus reducing the difference between control and treatment groups.

ULK1 system = experiment: ULK1 / ULK1(p757) autophagy stimulation assay (mTOR pathway), western blot; type: cell-based, rat; conditions: RG2 cells, 24 h; read-out: EC50 on the ULK1 system (ULK1 increase and ULK1(p757) decrease)
Excerpt: This technique has been documented in the literature for use in the comparison of the potency of individual compounds, relative to a recognized standard, and this technique has become a standard method of autophagy analysis. In addition to quantitating the stimulation of autophagy for the compounds, relative to LKE, because it is cell based, this assay also provides evidence that the compounds can permeate cell membranes. This affords valuable information for the comparison of individual compounds to stimulate autophagy, and will allow them to be ranked for use in the determination of a structure activity relationship (SAR). […] For validation purposes, a second, quantitative autophagy stimulation assay was utilized. […] This second assay provides validation for the LC3 assay.
Western Blotting: The proteins were electrophoresed and wet-blotted to polyvinylidine difluoride membranes, blocked overnight in 4% bovine serum albumin, and developed using antibodies obtained from Cell Signaling Technology (LC3A: cat #. 4599; ULK1: cat #. 8054, ULK1(p757): cat #. 6880).

microglia = conditions: cell systems; cited from earlier work
cells = conditions: H2O2 or t-butyl hydroperoxide; cited from earlier work
[4] = cell systems and C. elegans; cited from earlier work
CRMP2 = conditions: CRMP2-dependent fashion; cited from earlier work
[5] = measurement of brain LKE levels and animal studies
neurons = conditions: glutamate toxicity; cited from earlier work
[6] = system: permanent middle cerebral artery occlusion (pMCAO); conditions: after pMCAO; cited from earlier work
[7] = system: SOD1^G93A mouse model of amyotrophic lateral sclerosis; conditions: cited from earlier work
C6 glioma tumor = conditions: C6 glioma xenograft into rat cortices; cited from earlier work
[8] = system: 3×Tg-AD mouse model of Alzheimer's disease; conditions: cited from earlier work
SHSY5Y neurons = conditions: cited from earlier work

CCCCC1=C(P(=O)(O)O)N[C@H](C(=O)O)CS1
stimulation of autophagy / autophagic flux (LC3-II increase in presence of bafilomycin-A1) (RG2 glioma cells [1]): enter into cells and stimulate autophagy to varying degrees
potency of autophagy stimulation relative to LKE (ratio of LC3-II band densities) (RG2 glioma cells [1]): comparable activity
potency of autophagy stimulation relative to LKE (ratio of LC3-II band densities) (RG2 glioma cells [1]; listed as 2-butyl-LK-P): more effective at inducing autophagic flux than, inter alia, LK-E
stability to high vacuum pressures [2]: stable to high vacuum pressures at least overnight without visual or spectral decomposition

CCOC(=O)[C@@H]1CSC(C(C)N2CCCC2=O)=C(C(=O)O)N1 (single isomer, unassigned) [NVP-LKE]
stimulation of autophagy / autophagic flux (LC3-II increase in presence of bafilomycin-A1) (RG2 glioma cells [1]): stimulates autophagy in RG2 cells
potency of autophagy stimulation relative to LKE (ratio of LC3-II band densities) (RG2 glioma cells [1]): better autophagy activation than LKE; also recorded: more potent autophagy stimulator than LKE
suppression of nitric oxide (nitrite) production / microglial activation relative to LKE (EOC-20 microglia): maintains or gains potency over LKE; also recorded: equal or superior to LKE; also recorded: as potent or more potent than LKE

CC(C)C1=C(P(=O)(O)O)NCCS1 [2-isopropyl AECK-P, AminoEthyl Cysteine Ketimine-Phosphonate]
stimulation of autophagy / autophagic flux (LC3-II increase in presence of bafilomycin-A1) (RG2 glioma cells [1]): can enter cells to elicit a response
potency of autophagy stimulation relative to LKE (ratio of LC3-II band densities) (RG2 glioma cells [1]): comparable activity

CC(C)C1=C(P(=O)(O)O)N[C@H](C(=O)O)CS1 [2-isopropyl-LK-P, 2-isopropyl lanthionine ketimine phosphonate]
stimulation of autophagy / autophagic flux (LC3-II increase in presence of bafilomycin-A1) (RG2 glioma cells [1]): stimulates autophagy in RG2 cells at low micromolar concentrations; also recorded: enter into cells and stimulate autophagy to varying degrees; also recorded: increase autophagic flux
potency on autophagic flux relative to LK (RG2 glioma cells [1]; at 10 μM): clearly more potent at 10 μM than LK was
potency on autophagic flux relative to LK (RG2 glioma cells [1]; at 10 mM (FIG. 6 legend)): clearly was more potent at 10 mM than was LK
potency of autophagy stimulation relative to LK (RG2 glioma cells [1]; visual inspection of western blot): much more potent stimulator of autophagy than LK
potency of autophagy stimulation relative to LKE (ratio of LC3-II band densities) (RG2 glioma cells [1]): comparable activity
stability to high vacuum pressures [2]: stable to high vacuum pressures at least overnight without visual or spectral decomposition

CCCCCCC1=C(P(=O)(O)O)N[C@H](C(=O)OCC)CS1 [2-n-hexyl-LKE-P]
cell number (RG2 glioma cells [3]; 48 h): dose-dependent reduction in the cell number
replication of cultures (RG2 glioma cells [3]; first 24 h): replicated more slowly

O=C(O)C1=CSC[C@@H](C(=O)O)N1 [LK, (5R)-3,5,-dicarboxy-1-thia-4-aza-2-cyclohexene, reference compound]
stimulation of autophagy / autophagic flux (LC3-II increase in presence of bafilomycin-A1) (RG2 glioma cells [1]): increase autophagic flux

CCOC(=O)C1CSC=C(C(=O)O)N1 (stereo not shown) [LKE, lanthionine ketimine-ethyl ester]
EC50 (ULK1 system): ~50 nM
anti-neuroinflammatory activity (microglia): decreasing microglial response to inflammatory cytokines
antioxidant activity (cells): protecting cells against H2O2 or t-butyl hydroperoxide
axonal transport enhancement [4]: potentiating anterograde trafficking and delivery of synaptic proteins to the distal axon
neurotrophic activity (CRMP2): potentiating growth factor-dependent neurite growth
βββ penetrability [5]: good βββ penetrability
anti-excitotoxin activity (neurons): protecting neurons from glutamate toxicity
infarct volume and functional recovery [6]: decreases infarct volume and improves functional recovery
lifespan and motor function [7]: increases lifespan and slows decline of motor function
tumor growth (C6 glioma tumor): slows growth of C6 glioma tumor
stimulation of autophagy / autophagic flux (LC3-II increase in presence of bafilomycin-A1) (RG2 glioma cells [1]): enter into cells and stimulate autophagy to varying degrees
amyloid burden, phospho-tau, microglial activation, cognitive decline [8]: decreases amyloid burden inside neurons and in plaques, decreases phospho-tau accumulation, decreases microglial activation, and slows cognitive decline
amyloid reducing activity (SHSY5Y neurons): decreasing production of native Aβ(1-40)
